Test results from US10410851B2, “Matrix-assisted laser desorption mass spectrometry of high molecular weight polyoxyethylene derivative” (NOF CORPORATION, priority 2015, dated 2019).
One block for each compound: values may come before it.

Assay: 1-octanol/water partition coefficient (logPow) of the matrix by the high-performance liquid chromatography method, OECD Test Guideline 117
Type: physicochemical
Details: HPLC method of OECD Test Guideline 117, matrix for MALDI mass spectrometry
Text: The low polar matrix for MALDI mass spectrometry which can be used in the invention is a low polar matrix having a 1-octanol/water partition coefficient from 4.1 to 4.8 (more preferably from 4.3 to 4.8). The 1-octanol/water partition coefficient of the matrix is a numerical value measured by the high-performance liquid chromatography method described in OECD Test Guideline 117.

chromatographic logP (1-octanol/water): 0.6
SMILES: O=C(O)c1cc(O)ccc1O [2,5-dihydroxybenzoic acid]

SMILES: C/C(C=C(C#N)C#N)=C\c1ccc(C(C)(C)C)cc1 [Trans-2-[3-(4-tert-butylphenyl)-2-methyl-2-propenylidene]malononitrile]
1-octanol/water partition coefficient (logPow): 4.6

SMILES: N#CC(=Cc1ccc(O)cc1)C(=O)O [α-cyano-4-hydroxycinnamic acid]
chromatographic logP: 0.9
